Test results published in PubChem BioAssay (NCI).
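Five concentrations, 48 hours, 96-well plates. TGI: total growth inhibition.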

Experiments:
Assay in all cases: growth of human tumour cells (NCI), 48 h
[1] = system: NCI-H226 lung
[2] = system: HOP-92 NSCLC
[3] = system: EKVX NSCLC
[4] = system: KM12 colon
[5] = system: UACC-62 melanoma
[6] = system: OVCAR-5 ovarian
[7] = system: OVCAR-4 ovarian
[8] = system: SW-620 colon
[9] = system: MALME-3M melanoma
[10] = system: NCI/ADR-RES ovarian
[11] = system: T-47D breast
[12] = system: 786-0 renal
[13] = system: OVCAR-8 ovarian
[14] = system: OVCAR-3 ovarian
[15] = system: A498 renal
[16] = system: NCI-H522 lung
[17] = system: LOX IMVI melanoma
[18] = system: SK-MEL-5 melanoma
[19] = system: SF-539 CNS
[20] = system: A549 NSCLC
[21] = system: MCF7 breast
[22] = system: SR leukemia
[23] = system: UO-31 renal
[24] = system: SK-OV-3 ovarian
[25] = system: SK-MEL-2 melanoma
[26] = system: U251 CNS
[27] = system: IGROV1 ovarian
[28] = system: MDA-N
[29] = system: RPMI-8226 leukemia
[30] = system: CAKI-1 renal
[31] = system: RXF 393 renal
[32] = system: HCT-116 colon
[33] = system: UACC-257 melanoma
[34] = system: SF-295 CNS
[35] = system: MOLT-4 leukemia
[36] = system: HCT-15 colon
[37] = system: COLO 205 colon
[38] = system: SN12C renal
[39] = system: CCRF-CEM leukemia
[40] = system: DU-145 prostate
[41] = system: NCI-H460 lung
[42] = system: SNB-19 CNS
[43] = system: SNB-75 CNS
[44] = system: SF-268 CNS
[45] = system: HOP-62 NSCLC
[46] = system: MDA-MB-231 breast
[47] = system: M14 melanoma
[48] = system: BT-549 breast
[49] = system: TK-10 renal
[50] = system: PC-3 prostate
[51] = system: ACHN renal
[52] = system: HS 578T breast
[53] = system: NCI-H23 lung
[54] = system: HT29 colon
[55] = system: HL-60(TB) leukemia
[56] = system: K-562 leukemia
[57] = system: MDA-MB-435
[58] = system: HCC-2998 colon
[59] = system: SK-MEL-28 melanoma

With `Cc1nn(-c2ccccc2)c2c1C(c1cc3ccccc3nc1Cl)NC(=S)N2` (stereo unspecified) the TGI [1] was > 100 µM, the TGI [2] was 96.6 µM and the TGI [3] was > 100 µM. The TGI [4] was > 100 µM, the TGI [5] was > 100 µM and the TGI [6] was > 100 µM. The TGI [7] was > 100 µM, the TGI [8] was 98.4 µM and the TGI [9] was > 100 µM. The TGI [10] was > 100 µM, the TGI [11] was > 100 µM and the TGI [12] was > 100 µM. For the same molecule, the TGI [13] was 82.2 µM, the TGI [14] was > 100 µM and the TGI [15] was > 100 µM. For the same molecule, the TGI [16] was 69.5 µM, the TGI [17] was 56.6 µM and the TGI [18] was > 100 µM. For the same molecule, the TGI [19] was 67.2 µM, the TGI [20] was > 100 µM and the TGI [21] was > 100 µM. For the same molecule, the TGI [22] was > 100 µM, the TGI [23] was 50.4 µM and the TGI [24] was > 100 µM. For the same molecule, the TGI [25] was 44.8 µM, the TGI [26] was 83 µM and the TGI [27] was 37.6 µM. For the same molecule, the TGI [28] was > 100 µM, the TGI [29] was 48.7 µM and the TGI [30] was > 100 µM. For the same molecule, the TGI [31] was 71.8 µM, the TGI [32] was > 100 µM and the TGI [33] was > 100 µM. The TGI [34] was > 100 µM, the TGI [35] was > 100 µM and the TGI [36] was > 100 µM. For the same molecule, the TGI [37] was > 100 µM, the TGI [38] was > 100 µM and the TGI [39] was > 100 µM. For the same molecule, the TGI [40] was > 100 µM, the TGI [41] was > 100 µM and the TGI [42] was > 100 µM. For the same molecule, the TGI [43] was > 100 µM, the TGI [44] was > 100 µM and the TGI [45] was > 100 µM. For the same molecule, the TGI [46] was > 100 µM, the TGI [47] was > 100 µM and the TGI [48] was > 100 µM. The TGI [49] was > 100 µM, the TGI [50] was > 100 µM and the TGI [51] was > 100 µM. The TGI [52] was > 100 µM, the TGI [53] was > 100 µM and the TGI [54] was > 100 µM. For the same molecule, the TGI [55] was > 100 µM, the TGI [56] was > 100 µM and the TGI [57] was > 100 µM.

With `COc1cc(-c2c3c([nH]c(=O)c2C#N)-c2cc([N+](=O)[O-])ccc2CCC3)cc(OC)c1OC` the TGI [1] was 89 µM, the TGI [2] was > 100 µM and the TGI [3] was 70.5 µM. For the same molecule, the TGI [4] was > 100 µM, the TGI [5] was 32.1 µM and the TGI [6] was 69.1 µM. For the same molecule, the TGI [7] was > 100 µM, the TGI [8] was > 100 µM and the TGI [9] was 73.9 µM. The TGI [10] was > 100 µM, the TGI [11] was > 100 µM and the TGI [12] was 65.2 µM. The TGI [13] was > 100 µM, the TGI [14] was 46.3 µM and the TGI [15] was 66.9 µM. The TGI [16] was 59 µM, the TGI [17] was > 100 µM and the TGI [18] was 26.7 µM. The TGI [19] was > 100 µM, the TGI [20] was 81.8 µM and the TGI [21] was 44.5 µM. For the same molecule, the TGI [23] was 75.1 µM, the TGI [24] was 66.4 µM and the TGI [25] was 44.3 µM. The TGI [26] was > 100 µM, the TGI [27] was > 100 µM and the TGI [28] was 55 µM. For the same molecule, the TGI [29] was 52.1 µM, the TGI [30] was 87.9 µM and the TGI [31] was 82.8 µM. The TGI [32] was 37.7 µM, the TGI [33] was > 100 µM and the TGI [34] was 33.1 µM. For the same molecule, the TGI [35] was > 100 µM, the TGI [36] was > 100 µM and the TGI [37] was 43.3 µM. The TGI [38] was 46.7 µM, the TGI [39] was > 100 µM and the TGI [40] was > 100 µM. For the same molecule, the TGI [41] was 67 µM, the TGI [58] was 46.1 µM and the TGI [42] was > 100 µM. For the same molecule, the TGI [43] was 62.6 µM, the TGI [44] was > 100 µM and the TGI [45] was 92.2 µM. For the same molecule, the TGI [46] was 79.2 µM, the TGI [47] was > 100 µM and the TGI [48] was 61.3 µM. The TGI [49] was > 100 µM, the TGI [50] was > 100 µM and the TGI [51] was 70.6 µM. The TGI [59] was > 100 µM, the TGI [52] was 73.3 µM and the TGI [53] was 45.8 µM. The TGI [54] was > 100 µM, the TGI [55] was 72.7 µM and the TGI [56] was > 100 µM. The TGI [57] was > 100 µM.

In the case of `O=C(O)c1cncc(C(=O)O)c1`, the TGI [1] is reported as > 100 µM, the TGI [3] is reported as > 100 µM and the TGI [4] is reported as > 100 µM. The TGI [5] was > 100 µM, the TGI [6] was > 100 µM and the TGI [7] was > 100 µM. For the same molecule, the TGI [8] was > 100 µM, the TGI [9] was > 100 µM and the TGI [10] was > 100 µM. For the same molecule, the TGI [11] was > 100 µM, the TGI [12] was > 100 µM and the TGI [13] was > 100 µM. For the same molecule, the TGI [14] was > 100 µM, the TGI [15] was > 100 µM and the TGI [16] was > 100 µM. For the same molecule, the TGI [17] was > 100 µM, the TGI [18] was > 100 µM and the TGI [19] was > 100 µM. The TGI [20] was > 100 µM, the TGI [21] was > 100 µM and the TGI [23] was > 100 µM. The TGI [24] was > 100 µM, the TGI [25] was > 100 µM and the TGI [26] was > 100 µM. For the same molecule, the TGI [27] was > 100 µM, the TGI [28] was > 100 µM and the TGI [29] was > 100 µM. For the same molecule, the TGI [30] was > 100 µM, the TGI [31] was > 100 µM and the TGI [32] was > 100 µM. For the same molecule, the TGI [33] was > 100 µM, the TGI [34] was > 100 µM and the TGI [35] was > 100 µM. The TGI [36] was > 100 µM, the TGI [37] was > 100 µM and the TGI [38] was > 100 µM. The TGI [39] was > 100 µM, the TGI [40] was > 100 µM and the TGI [41] was > 100 µM. The TGI [42] was > 100 µM, the TGI [43] was > 100 µM and the TGI [44] was > 100 µM. For the same molecule, the TGI [45] was > 100 µM, the TGI [46] was > 100 µM and the TGI [47] was > 100 µM. For the same molecule, the TGI [48] was > 100 µM, the TGI [49] was > 100 µM and the TGI [50] was > 100 µM. For the same molecule, the TGI [51] was > 100 µM, the TGI [59] was > 100 µM and the TGI [52] was > 100 µM. The TGI [53] was > 100 µM, the TGI [54] was > 100 µM and the TGI [55] was > 100 µM. The TGI [56] was > 100 µM and the TGI [57] was > 100 µM.
